Results on 2 compounds are retold here after US20170226139A1, “CRYSTALLINE SALTS OF (Z)-O-OCTADEC-9-EN-1-YL O,O-DIHYDROGEN PHOSPHOROTHIOATE” (priority 2013, published 2017).

One series has as its target T1, Human LPA3 (Homo sapiens, UniProt Q9UBY5).
T1 construct: expressed in transfected cells; host or cells: mouse embryonic fibroblasts (MEF) or rat hepatoma RH7777
T1 sequence (Q9UBY5 1-353): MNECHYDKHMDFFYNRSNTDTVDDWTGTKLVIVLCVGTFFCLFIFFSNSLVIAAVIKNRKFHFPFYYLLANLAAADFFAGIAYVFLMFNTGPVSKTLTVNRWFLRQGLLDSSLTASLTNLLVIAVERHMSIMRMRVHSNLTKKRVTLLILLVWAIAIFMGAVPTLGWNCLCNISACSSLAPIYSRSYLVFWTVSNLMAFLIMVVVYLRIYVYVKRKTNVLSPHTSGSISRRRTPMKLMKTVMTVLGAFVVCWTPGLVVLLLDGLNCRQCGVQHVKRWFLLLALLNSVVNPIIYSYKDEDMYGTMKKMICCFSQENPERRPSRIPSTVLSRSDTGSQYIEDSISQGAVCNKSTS
Kind of series: Calcium-mobilization assay (FURA-2), human LPA3 transfected cells. It is filed as cell-based. The note with it: for EC50: EC50 [nM], mean. Here is the method:
(§1) We investigated structure-activity relationships across species, LPAR subtypes and between Rx100 and two known process impurities encountered in manufacture: Rx103 (‘E’ isomer) and Rx200 (oleyl phosphate and impurity, which can be an Rx100 degradant along with oleyl alcohol). Rx100, Rx103, Rx200 and native LPA were investigated at different human LPAR subtypes. In addition, the activity of these compounds was evaluated at LPA2 receptors from the rhesus, rat and mouse species. Human LPA1/2/3 subtypes were transfected into mouse embryonic fibroblasts (MEF) or rat hepatoma cells (RH7777)—both of which are normally non-responsive or null to LPA. Human LPA4 was transfected into Chinese hamster ovary (CHO) cells and LPA5 into the B103 neuroblastoma cell line. […] The B103 rat neuroblastoma cell line is endogenously nonresponsive to LPA but expresses heterologous LPA5 receptors well. […] LPAR activation elicits a G-protein-mediated transient rise in intracellular calcium level that is proportional to the concentration of LPA applied. The intracellular calcium level was quantified by the calcium-selective fluorescent indicator FURA-2 (e.g., increased intracellular calcium surge=increased fluorescence).

The target in series [1] is LPA2 receptors from the rhesus (Macaca mulatta, UniProt I2CXV3). As to the kind of experiment: Calcium-mobilization assay (FURA-2), rhesus LPA2. The class given is cell-based. Here is the method: as §1
Chain of LPA2 receptors from the rhesus (I2CXV3 1-351): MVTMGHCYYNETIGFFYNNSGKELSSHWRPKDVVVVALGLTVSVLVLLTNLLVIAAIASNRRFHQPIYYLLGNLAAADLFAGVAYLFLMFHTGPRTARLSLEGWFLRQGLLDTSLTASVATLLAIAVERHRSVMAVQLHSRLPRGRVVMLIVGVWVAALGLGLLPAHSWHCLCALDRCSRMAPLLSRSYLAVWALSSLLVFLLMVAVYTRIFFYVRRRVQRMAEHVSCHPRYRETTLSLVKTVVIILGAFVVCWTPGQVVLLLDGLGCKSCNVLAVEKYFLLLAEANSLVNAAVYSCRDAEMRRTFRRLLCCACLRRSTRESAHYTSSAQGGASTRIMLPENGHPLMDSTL
Series [2] concerns the target T2, LPA2 receptors from the mouse (Mus musculus, UniProt Q9JL06).
T2 construct: expressed in transfected cells
Kind of series: Calcium-mobilization assay (FURA-2), mouse LPA2. The class given is cell-based. Here is the method:
as §1

The subject of series [3] is lysophosphatidic acid receptor (LPAR). As to the kind of experiment: Calcium-mobilization assay, overall statements for all species and LPAR subtypes tested. The class given is cell-based.
Text: The compound was medicinally designed as an LPA analog with the goal of decreasing the otherwise rapid metabolism of LPA itself. […] These receptors are ubiquitous by tissue and in those eukaryotes investigated. […] Thus, the mechanism of drug action for GI-ARS protection is activation of the transmembrane G protein-coupled lysophosphatidic acid receptor (LPAR) and, more specifically, the LPAR2 GPCR subtype. The primary pharmacodynamics is that LPAR2 activation leads to a cascade of intracellular events that switch cells from an apoptotic to a repair/regenerative pathway.
as §1
Oleyl alcohol is, of course, a common component of many non-toxic ingested or dermally applied substances.

A further series concerns the target Human LPA2 (Homo sapiens, UniProt Q9HBW0). Kind of series: Calcium-mobilization assay (FURA-2), human LPA2 transfected cells. It is filed as cell-based. Set-up: expressed in transfected cells; host or cells: mouse embryonic fibroblasts (MEF) or rat hepatoma RH7777. Here is the method: as §1
Series [4] in a line: Gravimetric moisture sorption analysis, with XRPD afterwards. The class given is physicochemical. Here is the method:
Moisture sorption analysis of the Rx100.L-Lysine salt was performed by equilibrating the sample at 25° C. and 50% RH to simulate ambient lab conditions. Humidity then decreased to 0% RH, increased from 0 to 95% RH, reduced from 95 to 0% RH, increased from 0 to 95% RH and then decreased from 95 to 50% RH.

The test system of the next series is cynomolgus monkeys. As to the kind of experiment: Single-dose range-finding and 7-day repeat-dose toxicity in monkeys. The class given is in vivo. Here is the method:
In the first phase of the range-finding monkey study, one male and one female cynomolgus monkeys received single subcutaneous doses of Rx100.Lysine at 0.3, 1, 3, 10, 25 and 75 mg/kg of free acid. The vehicle for all doses was Sterile water for injection with 10 mM L-histidine. In the 7-day repeat-dose phase, two males and females were dosed subcutaneously at 10 mg/kg/day. Parameters evaluated included clinical signs, body weight, food consumption, and clinical and anatomic pathology. […] Animals were subsequently sacrificed. […] No effects on body weights were seen.

Series [5] deals with bone marrow cells (micronucleated PCEs). As to the kind of experiment: In vivo rat bone marrow micronucleus assay. Set-up: species or system Sprague-Dawley rats. On the procedure:
A GLP-compliant rat micronucleus study was performed using male Sprague-Dawley rats (n=5/group) administered single subcutaneous doses of Rx100.lysine at 0 (0.5% sterile water for injection with 10 mM L-histidine), 125, 250, and […] (doses corrected for purity were 113, 225 and 452 mg/kg). One additional group received the positive control material (cyclophosphamide). Five animals per group were sacrificed 24 hours postdose; five animals from the vehicle and high dose group were sacrificed 48 hours postdose. Following sacrifice, bone marrow cells were collected from the femur. 2000 PCEs per animal were analyzed for the frequency of micronuclei. […] The materials were also shown to be homogenous (relative standard deviation [RSD] of 0.7 to 0.9%). […] Thus, Rx100.Lysine was considered to be negative in the micronucleus assay.

Setting [6] is: 125 mg/kg single subcutaneous dose, harvest 24 hour.
Setting [7] is: 250 mg/kg single subcutaneous dose, harvest 24 hour.

Entries after “also recorded” stand apart in the source; their conditions may differ. Where two headings read alike, the source gives them in different places.

Chain of Human LPA2 (Q9HBW0 whole entry): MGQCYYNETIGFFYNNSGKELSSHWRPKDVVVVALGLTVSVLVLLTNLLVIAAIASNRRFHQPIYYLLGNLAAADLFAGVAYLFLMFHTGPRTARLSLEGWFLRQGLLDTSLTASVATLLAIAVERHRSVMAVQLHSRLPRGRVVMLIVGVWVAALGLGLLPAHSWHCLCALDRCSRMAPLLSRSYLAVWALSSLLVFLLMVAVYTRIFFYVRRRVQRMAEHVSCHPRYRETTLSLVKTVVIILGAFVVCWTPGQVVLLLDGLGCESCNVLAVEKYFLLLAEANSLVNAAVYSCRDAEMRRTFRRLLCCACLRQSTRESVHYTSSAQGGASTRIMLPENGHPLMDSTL
T2 sequence (Q9JL06 whole entry): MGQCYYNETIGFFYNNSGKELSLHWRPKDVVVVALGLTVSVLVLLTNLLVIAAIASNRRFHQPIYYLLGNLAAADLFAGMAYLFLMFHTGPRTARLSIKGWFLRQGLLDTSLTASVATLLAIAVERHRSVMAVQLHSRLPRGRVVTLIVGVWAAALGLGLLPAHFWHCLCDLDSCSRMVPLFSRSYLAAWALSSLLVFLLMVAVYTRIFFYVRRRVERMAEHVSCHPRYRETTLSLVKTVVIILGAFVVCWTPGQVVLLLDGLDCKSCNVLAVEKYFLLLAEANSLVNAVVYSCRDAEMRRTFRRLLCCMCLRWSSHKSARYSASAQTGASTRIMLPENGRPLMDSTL

For `CCCCCCCC/C=C\CCCCCCCCOP(O)(O)=S` [Rx100, (Z)—O-octadec-9-en-1-yl O,O-dihydrogen phosphorothioate], the EC50 (commonly the midpoint of the concentration-response curve) turned out to be 205 nM on Human LPA3 (LPA3 DKO MEF, human); 113 nM on Human LPA3 (LPA3 RH7777, human); 104 nM in series [1]; 167 nM in series [2]; 124 nM on Human LPA2. Also, the Emax (usually the maximal effect, on the per cent scale that the assay sets) on Human LPA3 (RH7777, read-out: Emax (% of LPA)) was found to be 71%; on Human LPA3 (read-out: Emax (% of LPA)), 82%; in series [1] (read-out: Emax (% of LPA)), 100%; in series [2] (read-out: Emax (% of LPA)), 100%; on Human LPA2 (read-out: Emax (% of LPA)), 100%. In addition, the “LPAR activation” value in series [3] is given as “pan lysophosphatidic acid receptor (LPAR) agonist; also recorded: substantially more in vitro activity”.

Turning to `CCCCCCCC/C=C\CCCCCCCCOP(O)(O)=S` [Rx100.L-Lysine, (Z)—O-octadec-9-en-1-yl O,O-dihydrogen phosphorothioate], the Hygroscopicity entry in series [4] was “hygroscopic”. Besides, the “Residual water content after desorption” value in series [4] was less than 3%. Further, in series [4] (at 95% RH, 25° C.), the “Water adsorbed in moisture sorption analysis” value is on record as 20.6%. The “Form by XRPD after moisture sorption analysis” value in series [4] (compared with Pattern A) is “no change in form”. Moreover, in the series on cynomolgus monkeys (10 mg/kg/day SC, 7 days), the “effects on body weights” value was “No effects”. For the same compound, the “signs in repeated dose phase” value with cynomolgus monkeys (10 mg/kg/day SC, 7 days) is “intermittent food consumption and adverse effects at the injection sites”. The clinical signs entry in the series on cynomolgus monkeys (single SC dose 75 mg/kg) is “animals became hunched and were obviously in pain”; in series [5] (high dose animals at 48 hours postdose), “hunched posture, hypoactivity and irregular respiration”. In addition, the treatment related effects result in the series on cynomolgus monkeys (single SC doses up to and including 25 mg/kg) is reported as “no meaningful treatment related effects”. Also, the results for the “Mean % MNPC (±SD) Male” value in series [5] (setting [6]) and in series [5] (setting [7]) were 0.04% and 0.07%, respectively. Also, the “Mean Ratio PCE:NCE (±SD) Male” value amounted to 0.55 in series [5] (setting [6]); 0.59 in series [5] (setting [7]); 0.36 in series [5] (500 mg/kg single subcutaneous dose, harvest 48 hour). Further, in series [5] (all doses of the test article, statistically significant decreases in the PCE:NCE ratios), the “Toxic/Cytotoxic Effects” value is given as “Toxic/Cytotoxic Effects: Rx100.Lysine was cytotoxic to the bone marrow (i.e., statistically significant decreases in the PCE:NCE ratios)”. The “micronucleated PCEs” value in series [5] (any dose, 24 hour point, single SC dose) is on record as “no increase in micronucleated PCEs”; in series [5] (high dose animals, 48-hour time point, not considered biologically relevant), “statistically significant increase”. Also, the “micronucleus assay, overall result” value in series [5] (rat, in vivo) was “negative”.
